One assay has as its target Protein Wnt-3a (Mus musculus, UniProt P27467). In words: antagonism of Wnt3a pathway luciferase reporter – Wnt-LIGHT cells, luminescence, selectivity assay for Gli-SUFU antagonist project, dose response (AID 651570).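 Also: Wnt-LIGHT reporter cells stimulated with conditioned medium from Wnt3a-producing cells.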 The format is functional. Conditions: read-out: IC50_Mean. (Reporter assays use an easily measured gene product as a stand-in for the process of interest.)

A short description of assay [1]: reduction of Shn3 3'UTR-driven luciferase in osteoblasts – cell-based, Clone20 osteoblasts, firefly luciferase, cherry-picked, dose response (AID 624132).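 Also: firefly luciferase luminescence from reporter carrying the Shn3 3'UTR in osteoblasts.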 It is filed as functional.
Assay [2] is described as follows: non-specific 3'UTR reporter inhibition in Clone20-Shn3RL – cell-based, Renilla luciferase, cherry-picked, counter-screen for Shn3 inhibitor project, dose response (AID 624133). The format is functional. On the technique in general: A counterscreen serves to expose hits that act by an unwanted route or on another target.
Assay [3] is described as follows: loss of viability in HepG2 cells – cell-based, CellTiter-Glo, cherry-picked, cytotoxicity control for Shn3 inhibitor project, dose response (AID 624134). The format is functional. (In general: ATP-based viability assays read luminescence as a measure of living cells.)
The nature of assay [4]: Shn3 3'UTR reporter signal decrease – cell-based, Clone20 osteoblasts, firefly luciferase, cherry-pick, set 2, Schnurri-3 inhibitor project, dose response (AID 720490).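 Also: actives lower the luminescence signal as inhibitors.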 The format is functional.
In assay [5] the target is COUP transcription factor 2 (Homo sapiens, UniProt P24468). In words: Luminescence-based cell-based high throughput dose response assay to identify inhibitors of COUP-TFII (NR2F2). It is filed as functional.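 Also: HEK293 cells transiently cotransfected with COUP-TFII expression vector and reporter; luciferase reporter luminescence driven by COUP-TFII from the pX2-168 reporter plasmid.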
A further assay deals with T1, Galanin receptor type 3 (Homo sapiens, UniProt O60755).
T1 sequence (O60755 whole entry): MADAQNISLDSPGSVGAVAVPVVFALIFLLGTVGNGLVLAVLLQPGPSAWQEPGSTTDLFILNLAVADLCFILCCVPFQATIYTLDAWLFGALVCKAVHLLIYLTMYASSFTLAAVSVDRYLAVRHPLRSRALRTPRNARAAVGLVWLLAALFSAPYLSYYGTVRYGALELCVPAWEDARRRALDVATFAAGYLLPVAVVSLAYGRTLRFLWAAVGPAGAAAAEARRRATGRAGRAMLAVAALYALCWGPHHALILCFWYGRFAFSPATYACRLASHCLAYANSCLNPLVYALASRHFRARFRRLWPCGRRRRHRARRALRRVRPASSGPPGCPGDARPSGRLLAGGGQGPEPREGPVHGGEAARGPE
In words: Fluorescence-based cell-based primary high throughput dose response assay to identify antagonists of the Galanin Receptor 3 (GalR3). It is filed as functional.

The nature of assay [6]: blockers of HIV-1 ZM109 envelope-driven cell-cell fusion – HeLa effector, CEM target cells, luciferase, cherry-pick, dose response (AID 652058).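 Also: luciferase signal from HIV-1 Env mediated cell-cell fusion of effector and target cells.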 The format is functional, cell-based.
The subject of a further assay is INS1. In words: INS-1E survival protection against cytokine death – cell-based, luminescence, retest, dose response (AID 449756).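 Also: cell death triggered by IL-1 beta plus TNF-alpha plus IFN-gamma mixture; protective hits raise ATP signal compared with cytokine alone wells.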 The format is functional. Conditions: Rattus norvegicus.
Assay [7] is described as follows: cells. Conditions: HEK-CNG. The format is functional, cell-based.
Assay [8] in a line: HEK-293T cell viability reduction – luminescence, B-cell screen hits, cytotoxicity control for BCR NF-kB inhibitor project, dose response (AID 489021).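 Also: HEK-293T cells carrying an NF-kB luciferase reporter; cells exposed to compound for about 14 hours before viability readout.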 The format is functional, cell-based.
The nature of assay [9]: HIV-1 AD8 envelope cell-cell fusion blockers – cherry-pick, dose response (AID 652062).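 Also: luciferase signal from cell-cell fusion driven by HIV-1 clade B AD8 Env; potency is for inhibitors of fusion seen as a drop in luminescence.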 The format is functional, cell-based.
For assay [10], the target named is T2, High affinity choline transporter 1 (Homo sapiens, UniProt Q9GZV3).
T2 sequence (Q9GZV3 whole entry): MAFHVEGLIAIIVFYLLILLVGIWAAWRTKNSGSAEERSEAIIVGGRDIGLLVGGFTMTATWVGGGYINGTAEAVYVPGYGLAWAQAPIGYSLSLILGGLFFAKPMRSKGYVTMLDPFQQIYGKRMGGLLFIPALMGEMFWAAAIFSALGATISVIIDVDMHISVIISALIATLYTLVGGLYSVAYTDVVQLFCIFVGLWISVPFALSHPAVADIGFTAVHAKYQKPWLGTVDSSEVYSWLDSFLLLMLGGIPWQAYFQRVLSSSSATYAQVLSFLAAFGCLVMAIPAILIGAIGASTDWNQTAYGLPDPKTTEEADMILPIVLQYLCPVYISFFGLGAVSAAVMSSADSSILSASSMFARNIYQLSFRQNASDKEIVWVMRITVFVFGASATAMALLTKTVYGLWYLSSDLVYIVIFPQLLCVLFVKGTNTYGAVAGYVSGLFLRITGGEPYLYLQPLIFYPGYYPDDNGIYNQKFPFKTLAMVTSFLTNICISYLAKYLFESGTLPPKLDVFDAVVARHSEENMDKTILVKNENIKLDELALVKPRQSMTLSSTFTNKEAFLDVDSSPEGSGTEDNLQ
In words: human choline transporter blockers, potency – cell-based, 5-point CRC, membrane potential dye, dose response (AID 504840). The format is functional.

Assay [11] in a line: cells.
Assay [12] has as its target T3, Oxysterols receptor LXR-beta (Homo sapiens, UniProt P55055).
T3 sequence (P55055 whole entry): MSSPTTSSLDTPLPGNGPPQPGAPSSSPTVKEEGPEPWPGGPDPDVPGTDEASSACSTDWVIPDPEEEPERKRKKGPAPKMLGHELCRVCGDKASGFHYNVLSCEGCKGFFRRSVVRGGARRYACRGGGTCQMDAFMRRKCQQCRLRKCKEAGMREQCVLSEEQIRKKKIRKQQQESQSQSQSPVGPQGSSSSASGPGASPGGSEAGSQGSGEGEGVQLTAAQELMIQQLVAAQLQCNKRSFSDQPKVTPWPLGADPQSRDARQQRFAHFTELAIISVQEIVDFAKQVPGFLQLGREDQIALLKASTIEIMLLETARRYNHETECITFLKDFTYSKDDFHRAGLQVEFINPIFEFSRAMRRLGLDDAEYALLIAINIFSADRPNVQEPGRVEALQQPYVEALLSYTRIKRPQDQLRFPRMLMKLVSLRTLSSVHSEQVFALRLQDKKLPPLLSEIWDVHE
It is filed as functional, cell-based.

A short description of assay [13]: cells. It is filed as functional, cell-based.
Assay [14] addresses T4, Nuclear receptor subfamily 0 group B member 1 (Homo sapiens, UniProt P51843).
T4 sequence (P51843 whole entry): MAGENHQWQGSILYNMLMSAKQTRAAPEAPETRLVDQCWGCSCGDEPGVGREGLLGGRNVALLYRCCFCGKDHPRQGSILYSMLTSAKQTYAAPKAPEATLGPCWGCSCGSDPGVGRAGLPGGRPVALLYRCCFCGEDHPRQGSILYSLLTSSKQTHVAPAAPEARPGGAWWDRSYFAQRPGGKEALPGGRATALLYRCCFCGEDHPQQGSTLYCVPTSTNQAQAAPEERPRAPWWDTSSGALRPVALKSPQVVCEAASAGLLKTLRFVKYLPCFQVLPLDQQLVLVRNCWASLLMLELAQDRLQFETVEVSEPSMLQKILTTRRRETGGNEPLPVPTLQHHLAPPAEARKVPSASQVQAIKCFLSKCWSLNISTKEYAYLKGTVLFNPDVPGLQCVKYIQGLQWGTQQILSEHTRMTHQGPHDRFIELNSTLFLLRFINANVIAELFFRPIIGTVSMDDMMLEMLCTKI
It is filed as functional, cell-based.

A short description of assay [15]: Luminescence-based cell-based high throughput dose response assay to identify activators of the DAF-12 from the parasite S. stercoralis (ssDAF-12). It is filed as functional.
The target in assay [16] is T3, Oxysterols receptor LXR-beta. In words: LXR agonists, Gal4 luciferase reporter, dose response, counter-screen for ssDAF-12 agonist project, cell-based, luminescence, HEK293, S. stercoralis campaign (AID 720737). The format is functional. The note with it: read-out: IC50 (the source's name).
The target in assay [17] is NAD-dependent protein deacylase sirtuin-5, mitochondrial (Homo sapiens, UniProt Q9NXA8). In words: sirtuin-5 deacylation blockers, concentration series – biochemical, fluorescence imaging, cherry-pick, set 5, dose response (AID 720591).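 Also: desuccinylation of succinyl peptide AMC substrate read as fluorescence after trypsin release; potency of inhibitors that lower fluorescence and may act on trypsin instead.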

The source made the active and inactive calls.

Sequence of NAD-dependent protein deacylase sirtuin-5, mitochondrial (Q9NXA8 whole entry): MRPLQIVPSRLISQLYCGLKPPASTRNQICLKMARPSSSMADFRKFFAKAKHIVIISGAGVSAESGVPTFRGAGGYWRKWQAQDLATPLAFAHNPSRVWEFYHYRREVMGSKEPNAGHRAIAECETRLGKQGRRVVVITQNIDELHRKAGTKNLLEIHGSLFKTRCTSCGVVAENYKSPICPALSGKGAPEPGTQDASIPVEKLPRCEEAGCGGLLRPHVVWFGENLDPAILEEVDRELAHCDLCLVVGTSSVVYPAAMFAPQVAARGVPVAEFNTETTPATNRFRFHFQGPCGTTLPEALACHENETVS
Sequence of Protein Wnt-3a (P27467 whole entry): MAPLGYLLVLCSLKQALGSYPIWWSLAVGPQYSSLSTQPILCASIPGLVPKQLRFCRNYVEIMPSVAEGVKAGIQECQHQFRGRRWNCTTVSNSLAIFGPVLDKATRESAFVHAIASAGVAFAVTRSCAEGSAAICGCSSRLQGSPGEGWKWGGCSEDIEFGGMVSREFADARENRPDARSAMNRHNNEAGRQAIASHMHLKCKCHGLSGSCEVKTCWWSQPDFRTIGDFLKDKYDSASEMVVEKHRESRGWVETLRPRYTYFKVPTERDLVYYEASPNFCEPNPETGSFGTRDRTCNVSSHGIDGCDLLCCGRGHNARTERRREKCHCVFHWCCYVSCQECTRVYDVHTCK
Sequence of COUP transcription factor 2 (P24468 whole entry): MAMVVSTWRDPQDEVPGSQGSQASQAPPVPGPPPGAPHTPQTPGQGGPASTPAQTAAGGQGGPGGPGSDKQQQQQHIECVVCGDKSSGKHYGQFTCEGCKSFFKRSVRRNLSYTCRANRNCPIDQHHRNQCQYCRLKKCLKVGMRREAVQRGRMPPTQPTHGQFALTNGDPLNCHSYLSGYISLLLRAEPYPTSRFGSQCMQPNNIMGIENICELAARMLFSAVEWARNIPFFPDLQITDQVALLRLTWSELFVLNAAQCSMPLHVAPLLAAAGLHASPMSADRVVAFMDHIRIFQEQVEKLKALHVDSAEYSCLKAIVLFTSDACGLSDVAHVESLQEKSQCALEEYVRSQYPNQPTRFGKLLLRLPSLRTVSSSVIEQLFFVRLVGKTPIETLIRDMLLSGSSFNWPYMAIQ

On to `CCN(CC)S(=O)(=O)c1ccc(S(=O)(=O)Nc2c(C)nn(C)c2C)cc1`, for which, on Protein Wnt-3a, the IC50 is 8.16 µM (active). The AC50 in assay [1] is 2.24 µM (active); in assay [2], 27.4 µM (active); in [3], 36.6 µM (active); in [4], 1.06 µM (active).
Regarding `Cc1nn(C)c(C)c1CN(C)S(=O)(=O)c1ccc2ccccc2c1`, the IC50 is 3.25 µM (active) in assay [5], 1.01 µM (active) at Galanin receptor type 3, > 80 µM (inactive) in assay [8] and 12.6 µM (active) in assay [10]. Besides, the AC50 in assay [6] is 0.626 µM (active); in the assay with INS1, 1.93 µM (active); in [9], 2.42 µM (active). For the same compound, in the assay “cells [7]”, the EC50 was > 29.9 µM (inactive).
For `O=C(Nc1ccccn1)c1sc2cccc(F)c2c1Cl`, the EC50 (in “cells [11]”; in assay [12]) was > 67.6 µM (inactive) in each case. For the same compound, the results for the IC50 (in “cells [13]”; in [14]) were > 67.6 µM (inactive) and > 0.834 µM (active), respectively.
On to `C(=Cc1c[nH]c2ccccc12)c1nccc2ccccc12`, for which the EC50 in the assay “cells [11]” is > 67.4 µM (inactive); in [16] it was > 67.6 µM (inactive); in [12] it was > 67.4 µM (inactive). Further, the IC50 in assay [15] was > 67.6 µM (inactive).
In the case of `CCOc1ccc(CCNC(=O)c2cccc(S(=O)(=O)N3CCN(C(C)=O)CC3)c2)cc1OCC`, the AC50 in [17] is > 30 µM (inactive).
On the same count and under the same terms, next, `Cc1ccc(S(=O)(=O)N2C[C@@H]3CCCC[C@@H]3[C@@H](C)[C@H]2c2cn(Cc3ccccc3)c3ccc(F)cc23)cc1`: > 30 µM (inactive).

As a reminder, the AC50 is the concentration giving half of the maximal activity seen.

The values are drawn from ChEMBL document CHEMBL1201862, “PubChem BioAssay data set” (2004).
